Where two headings read alike, the source gives them in different places.
Key:
[1] = system: T. cruzi (Tulahuen strain) expressing β-galactosidase; test: T. cruzi growth inhibition assay (β-gal activity, infection of NIH/3T3 cells); type: cell-based, Trypanosoma cruzi
Experimental: NIH/3T3 cells and parasites were harvested, washed once and resuspended in DMEM supplemented with 2% FBS and Pen-Strep-Glut. […] Different numbers of NIH/3T3 cells were seeded in 96-well plates. After 3 h, compounds were added at the indicated concentrations and mixed by pipetting. BZN tablets (Rochagan, Roche) dissolved in DMSO and 4 µM Amphotericin B solution (Sigma-Aldrich) were used as positive controls. Different numbers of T. cruzi parasites were added in a final volume of 200 µl/well. After 4 days, 50 µl of PBS containing 0.5% of the detergent NP40 and 100 µM Chlorophenol Red-β-D-galactoside (CPRG) (Fluka) were added. Plates were incubated at 37°C for 4 h and absorbance was read at 590 nm using a Tecan Spectra Mini plate reader.
To calculate the Z′ factor, we used the formula described by Zhang et al.: Z′ = 1−[(3σc++3σc−) / |μc+−μc−|] where σc+ = standard deviation (SD) of positive control, σc− = SD of negative control, μc+ = mean of positive control, μc− = mean of negative control. Subsequently, the best ratio was used for all growth inhibition assays (50.000 cells and parasites, multiplicity of infection (MOI) 1∶1).
To determine IC50 values, β-gal activity (Abs590) was plotted against compound concentration for each compound. The IC50 was determined as the concentration at which the activity (absorbance) was half that in the absence of compound. Mean IC50 values are the average of independent experiments performed in triplicate on three different days.

NIH/3T3 cells = test: Cytotoxicity assay (Alamar Blue) on NIH/3T3 cells; type: cell-based; settings: 4-day assay on NIH/3T3 cells
Experimental: (§1) Cells (NIH/3T3 or HepG2) were washed and plated at a density of 50,000 cells/well of 96-well plates in 200 µl and allowed to adhere for 3 h. Twenty-four hour assays were done in DMEM without phenol red supplemented with 10% FBS and Pen-Strep-Glut, while 4-day assays were done in the same medium containing 2% FBS. Drugs were added and mixed. After 1 or 4 days, 20 µl of Alamar Blue (Biosource, Invitrogen) was added. Plates were incubated for 4 h (HepG2) or 6 h (NIH/3T3) at 37°C and fluorescence was read using a Labsystems Fluoroskan II plate reader (excitation: 544 nm, emission: 590 nm) .
(§2) To determine TC50 values, fluorescence was plotted against inhibitor concentration. TC50 was determined as the concentration at which cytotoxicity (fluorescence) was half that in the absence of inhibitor.

mammalian cells = test: Cytotoxicity on mammalian cells (cell type not given); type: cell-based; settings: cells and duration not stated
Experimental: as §1, §2

[2] = Trypanosoma cruzi, TULAHUEN, NIH3T3, other confirmed hits that retained activity at 5 µg/ml, read-out: IC50 < 1 µg/ml
[3] = Trypanosoma cruzi, TULAHUEN, NIH3T3, 96 h, β-gal T. cruzi Tulahuen, 50.000 NIH/3T3 cells and parasites (MOI 1:1), 4 days, read-out: IC50 Intracellular growth
[4] = β-gal T. cruzi Tulahuen, 50.000 NIH/3T3 cells and parasites (MOI 1:1), 4 days, read-out: IC50 Intracellular growth
[5] = Trypanosoma cruzi, TULAHUEN, NIH3T3, 96 h, read-out: IC50 Intracellular growth

Which results are given for Cc1ccc2n(c1)cc(C)[n+]2CC(=O)c1ccc(-c2ccccc2)cc1.[Br-] [1-[2-(4-biphenylyl)-2-oxoethyl]-2,6-dimethylimidazo[1,2-a]pyridin-1-ium bromide]?
IC50 [1, 2]: > 1 µg/mL; TC50 > 25 mg/ml (NIH/3T3 cells): YES (> 25 mg/ml)

Which results are given for O=c1c2c3c(sc2[nH]c(=S)n1Cc1ccccc1)CCC3 [3-benzyl-2-thioxo-1,2,3,5,6,7-hexahydro-4H-cyclopenta[4,5]thieno[2,3-d]pyrimidin-4-one]?
IC50 [1, 2]: > 1 µg/mL; TC50 > 25 mg/ml (NIH/3T3 cells): NO (> 25 mg/ml)

Which IC50 [1, 2] does the source give for Br.Cc1ccnc(Nc2nc(-c3ccccn3)cs2)c1 [4-methyl-N-[4-(2-pyridinyl)-1,3-thiazol-2-yl]-2-pyridinamine hydrobromide] here?
The IC50 was under 1 µg/mL.

And the “TC50 > 25 mg/ml” value (NIH/3T3 cells)?
The value was “NO (> 25 mg/ml)”.

For Cc1cc(OCCCCCn2ccnc2)cc(C)c1Cl [CX2, 1-[5-(4-chloro-3,5-dimethylphenoxy)pentyl]-1H-imidazole], which IC50 [1, 3] is on record?
The IC50 was 2 nM.

What about the IC50 [1, 4] of the same compound?
The IC50 was 2.5 nM.

And the TC50 (mammalian cells)?
The TC50 was 19500 nM.

Cc1cc(OCCCCn2ccnc2)cc(C)c1Cl [CX3, 1-[4-(4-chloro-3,5-dimethylphenoxy)butyl]-1H-imidazole] was tested. Which IC50 [1, 3] did it give?
Its IC50 is 5.1 nM.

How did the IC50 [1, 3] turn out when Cc1cc(Cl)cc(C)c1OCCCCCCn1ccnc1 [CX4, 1-[6-(4-chloro-2,6-dimethylphenoxy)hexyl]-1H-imidazole] was run?
The IC50 was 300 nM.

For Cc1cc(Cl)cc(C)c1OCCCCCn1ccnc1 [CX5, 1-[5-(4-chloro-2,6-dimethylphenoxy)pentyl]-1H-imidazole], which IC50 [1, 3] is on record?
Its IC50 is 20.5 nM.

With Cc1cc(Cl)cc(C)c1OCCCCn1ccnc1 [CX6, 1-[4-(4-chloro-2,6-dimethylphenoxy)butyl]-1H-imidazole] as the compound, how does the IC50 [1, 3] read?
Its IC50 is 71.6 ± 37 nM.

With O=C(NN=Cc1cc(Br)cc(Br)c1O)c1cccc(N2CCCC2=O)c1 [N'-(3,5-dibromo-2-hydroxybenzylidene)-3-(2-oxo-1-pyrrolidinyl)benzohydrazide] as the compound, how does the IC50 [1, 2] read?
Its IC50 is over 1 µg/mL.

What about the “TC50 > 25 mg/ml” value (NIH/3T3 cells) of the same compound?
Its value is “NO (> 25 mg/ml)”.

For CCN(CC)c1ccc(N=Cc2cccc(C)c2)cc1 [N,N-diethyl-N'-(3-methylbenzylidene)-1,4-benzenediamine], which IC50 [1, 2] is on record?
The IC50 was over 1 µg/mL.

And the “TC50 > 25 mg/ml” value (NIH/3T3 cells)?
The value was “YES (> 25 mg/ml)”.

COc1ccc(NC(=S)NC(=O)c2ccco2)cc1 [N-{[(4-methoxyphenyl)amino]carbonothioyl}-2-furamide] was tested. Which IC50 [1, 2] did it give?
Its IC50 is over 1 µg/mL.

And the “TC50 > 25 mg/ml” value (NIH/3T3 cells)?
The value was “YES (> 25 mg/ml)”.

With COc1cc(NC(=O)Cn2cnc([N+](=O)[O-])n2)cc([N+](=O)[O-])c1 [NT2, N-(3-methoxy-5-nitrophenyl)-2-(3-nitro-1H-1,2,4-triazol-1-yl)acetamide] as the compound, how does the IC50 [1, 5] read?
Its IC50 is 2630 ± 808 nM.

With O=C(Cn1cnc([N+](=O)[O-])n1)Nc1cc(Oc2cccnc2)cc([N+](=O)[O-])c1 [NT3, N-[3-nitro-5-(3-pyridinyloxy)phenyl]-2-(3-nitro-1H-1,2,4-triazol-1-yl)acetamide] as the compound, how does the IC50 [1, 5] read?
Its IC50 is 4920 ± 1280 nM.

With O=C(Cn1cnc([N+](=O)[O-])n1)Nc1cc(Oc2cncc(Cl)c2)cc([N+](=O)[O-])c1 [NT4, N-{3-[(5-chloro-3-pyridinyl)oxy]-5-nitrophenyl}-2-(3-nitro-1H-1,2,4-triazol-1-yl)acetamide] as the compound, how does the IC50 [1, 5] read?
The IC50 was 1270 ± 251 nM.

For O=C(Cn1cnc([N+](=O)[O-])n1)Nc1cccc(C(F)(F)F)c1 [NT5, 2-(3-nitro-1H-1,2,4-triazol-1-yl)-N-[3-(trifluoromethyl)phenyl]acetamide], which IC50 [1, 3] is on record?
The IC50 was 1060 ± 385 nM.

How did the IC50 [1, 3] turn out when O=C(Cn1cnc([N+](=O)[O-])n1)Nc1cc(C(F)(F)F)ccc1Cl [NT6, N-[2-chloro-5-(trifluoromethyl)phenyl]-2-(3-nitro-1H-1,2,4-triazol-1-yl)acetamide] was run?
Its IC50 is 1130 ± 378 nM.

For O=C(Cn1cnc([N+](=O)[O-])n1)Nc1ccc(Cl)cc1C(F)(F)F [NT7, N-[4-chloro-2-(trifluoromethyl)phenyl]-2-(3-nitro-1H-1,2,4-triazol-1-yl)acetamide], which IC50 [1, 3] is on record?
Its IC50 is 1290 ± 463 nM.

O=C(CCCn1cnc([N+](=O)[O-])n1)Nc1cc(C(F)(F)F)ccc1Cl [NT8, N-[2-chloro-5-(trifluoromethyl)phenyl]-4-(3-nitro-1H-1,2,4-triazol-1-yl)butanamide] was tested. Which IC50 [1, 3] did it give?
The IC50 was 983 ± 388 nM.

For O=C(CCCn1cnc([N+](=O)[O-])n1)Nc1ccccc1C(F)(F)F [NT9, 4-(3-nitro-1H-1,2,4-triazol-1-yl)-N-[2-(trifluoromethyl)phenyl]butanamide], which IC50 [1, 3] is on record?
Its IC50 is 3020 ± 1390 nM.

How did the IC50 [1, 3] turn out when O=C(NN=Cc1ccc(-c2cccc(Cl)c2Cl)o1)c1cccnc1 [PCH2, N′-{[5-(2,3-dichlorophenyl)-2-furyl]methylene}nicotinohydrazide] was run?
The IC50 was 1930 ± 707 nM.

Which IC50 [1, 3] does the source give for O=C(NN=Cc1ccc(-c2cccc(Cl)c2Cl)o1)c1ccncc1 [PCH3, N′-{[5-(2,3-dichlorophenyl)-2-furyl]methylene}isonicotinohydrazide] here?
Its IC50 is over 10000 nM.

For O=C(NN=Cc1ccc(-c2cccc(Cl)c2Cl)o1)c1ccc(Br)cc1 [PCH4, 4-bromo-N′-{[5-(2,3-dichlorophenyl)-2-furyl]methylene}benzohydrazide], which IC50 [1, 3] is on record?
The IC50 was over 10000 nM.

Which IC50 [1, 3] does the source give for O=C(NN=Cc1ccc(-c2cccc(Cl)c2)o1)c1ccccn1 [PCH5, N′-{[5-(3-chlorophenyl)-2-furyl]methylene}-2-pyridinecarbohydrazide] here?
The IC50 was 29 ± 20 nM.

How did the IC50 [1, 3] turn out when O=C(NN=Cc1ccc(-c2ccccc2Cl)o1)c1ccccn1 [PCH6, N′-{[5-(2-chlorophenyl)-2-furyl]methylene}-2-pyridinecarbohydrazide] was run?
The IC50 was 2 nM.

What about the IC50 [1, 4] of the same compound?
Its IC50 is 2.1 nM.

And the TC50 (mammalian cells)?
Its TC50 is 18500 nM.

How did the IC50 [1, 3] turn out when O=C(NN=Cc1ccc(-c2ccc(Cl)c(Cl)c2)o1)c1ccccn1 [PCH7, N′-{[5-(3,4-dichlorophenyl)-2-furyl]methylene}-2-pyridinecarbohydrazide] was run?
The IC50 was 35 ± 20 nM.

What does the source list for COc1ccc(-c2ccc(C=NNC(=O)c3ccccn3)o2)cc1Cl [PCH8, N′-{[5-(3-chloro-4-methoxyphenyl)-2-furyl]methylene}-2-pyridinecarbohydrazide]?
IC50 ([1]; Trypanosoma cruzi, TULAHUEN, NIH3T3, 96 h, β-gal T. cruzi Tulahuen in NIH/3T3 cells, 4 days, read-out: IC50 T. cruzi growth inhibition): 1600 nM; IC50 [1, 3]: 1680 ± 490 nM

How did the IC50 [1, 3] turn out when O=C(NN=Cc1ccc(-c2cc(Cl)ccc2Cl)o1)c1ccccc1 [PCH9, N′-{[5-(2,5-dichlorophenyl)-2-furyl]methylene}benzohydrazide] was run?
The IC50 was 960 ± 300 nM.

Which IC50 [1, 3] does the source give for O=C(NN=Cc1ccc(-c2ccccc2Cl)o1)c1cccnc1 [PCH10, N′-{[5-(2-chlorophenyl)-2-furyl]methylene}nicotinohydrazide] here?
Its IC50 is 720 ± 183 nM.

What does the source list for CCOC(=O)c1ccc(Nc2nc3nonc3nc2NC(C)C)cc1 [ethyl 4-{[6-(isopropylamino)[1,2,5]oxadiazolo[3,4-b]pyrazin-5-yl]amino}benzoate]?
IC50 [1, 2]: > 1 µg/mL; TC50 > 25 mg/ml (NIH/3T3 cells): NO (> 25 mg/ml)

What does the source list for CCOc1ccc(-c2cn3c4ccccc4n(CCN(CC)CC)c3n2)cc1.Cl [{2-[2-(4-ethoxyphenyl)-9H-imidazo[1,2-a]benzimidazol-9-yl]ethyl}diethylamine hydrochloride]?
IC50 [1, 2]: > 1 µg/mL; TC50 > 25 mg/ml (NIH/3T3 cells): NO (> 25 mg/ml)

— publication PMC2639639, “Identification of Three Classes of Heteroaromatic Compounds with Activity against Intracellular Trypanosoma cruzi by Chemical Library Screening” (PLoS Neglected Tropical Diseases, 2009)
